The source of these data is patent publication US20080145876A1, “POLY(ETHYLENE GLYCOL) ANTI-BODY DETECTION ASSAYS AND KITS FOR PERFORMING THEREOF” (University of Southern California, priority 2006, published 2008).

Series [1] has as its system anti-PEG. The experiment in a line: Inhibition of PEG-RBC agglutination by polymers/small ethers added to anti-PEG positive sera (anti-PEG epitope study, tube test). The note with it: for Effect on PEG-RBC agglutination (inhibition): three 4+ anti-PEG positive sera, 1% (w/v) final concentration; for Agglutination Score of PEG-RBCs: compound added at 1% w/v, PBS control 4+. Type of series: binding, human. On the procedure: One drop of RBCs (PEG-coated or control (uncoated) RBCs) at 5% hct were added to 2 drops of plasma. Samples were incubated at room temperature for 15 minutes and then centrifuged at 1000×g for 1 minute. Agglutination of PEG-coated or uncoated (control) RBCs by each plasma sample was scored according to the 0-4+ scale.
The polymer and small ether solutions were added to anti-PEG positive sera at a 1:1 (v/v) ratio giving a final polymer/small ether concentration of 1% (w/v) and incubated for 30 minutes at room temperature. […] Inhibition of agglutination by the smallest ether molecule tested determined the anti-PEG epitope.

The nature of series [2]: ASNase activity in sera of PEG-ASNase-treated ALL patients (microplate technique) versus anti-PEG status. Type of series: in vivo, human. How it is done: Stored serum samples were collected from 28 pediatric acute lymphoblastic leukemia (ALL) patients who received the chemotherapy agent, PEG-conjugated asparaginase (PEG-ASNase). Sera were assayed for ASNase activity using a microplate technique. Testing for anti-PEG was performed by serology as described in Example 1 and by flow cytometry as described in Example 3.

Consider `OCCOCCO` [Diethylene Glycol], for which the “Effect on PEG-RBC agglutination (inhibition)” value (shortened to “Effect … (inhibition)”) in series [1] is recorded as “no effect”.

With `COCCOCCOCCOCCOC` [Tetraethylene Glycol Dimethyl Ether], the “Agglutination Score of PEG-RBCs” value in series [1] (Anti-PEG Positive Donor A), in series [1] (Anti-PEG Positive Donor B) and in series [1] (Anti-PEG Positive Donor C) was 0^ each time. In series [1], the “Effect … (inhibition)” value is “Complete inhibition of agglutination”.

`CCOCCOCCOCC` [Diethylene Glycol Diethyl Ether]: the “Effect … (inhibition)” value in series [1] is “reduced PEG-RBC agglutination (4+ to 2+)”.

Regarding `OCCO` [Ethlyene Glycol], the “Effect … (inhibition)” value in series [1] is “no effect”.

With `COCCOCCOCCOC` [Triethylene Glycol Dimethyl Ether], the “Agglutination Score of PEG-RBCs” value in series [1] (Anti-PEG Positive Donor A), in series [1] (Anti-PEG Positive Donor B) and in series [1] (Anti-PEG Positive Donor C) was 0^ throughout. In addition, the “Effect … (inhibition)” value in series [1] is recorded as “Complete inhibition of agglutination”.

Turning to `OCCOCCOCCO` [Triethylene Glycol], in series [1], the “Effect … (inhibition)” value is listed as “no effect”.

B1: PEG-asparaginase: chemotherapy agent, PEG-conjugated asparaginase (PEG-ASNase) (conjugate, UniProt P00805 23-348, looked up)
L-asparaginase 2: LPNITILATGGTIAGGGDSATKSNYTVGKVGVENLVNAVPQLKDIANVKGEQVVNIGSQDMNDNVWLTLAKKINTDCDKTDGFVITHGTDTMEETAYFLDLTVKCDKPVVMVGAMRPSTSMSADGPFNLYNAVVTAADKASANRGVLVVMNDTVLDGRDVTKTNTTDVATFKSVNYGPLGYIHNGKIDYQRTPARKHTSDTPFDVSKLNELPKVGIVYNYANASDLPAKALVDAGYDGIVSAGVGNGNLYKSVFDTLATAAKTGTAVVRSSRVPTGATTQDAEVDDAKYGFVASGTLNPQKARVLLQLALTQTKDPQQIQQIFNQY
modifications: PEG conjugate
In the case of B1, the “mean ASNase activity” value worked out at 12 U/L in series [2] (IgM anti-PEG positive patients by flow cytometry (n=13)), 438 U/L in series [2] (anti-PEG negative patients by flow cytometry (n=15)) and 353 U/L in series [2] (anti-PEG negative patients by serology (n=19)). Also, the ASNase activity entry is “low or undetectable” in series [2] (all anti-PEG positive patient sera, serology or flow cytometry); “undetectable” in series [2] (anti-PEG positive patients by serology (n=9)); 123 U/L in series [2] (one anomalous sample, weakly positive for anti-PEG IgM and positive for anti-ASNase).
